Test results reported in patent EP4813403A1, “USE OF GLP-1R/GIPR DOUBLE-TARGET AGONIST IN PREPARING ANIMAL DRUG” (Hangzhou Zhongmeihuadong Pharmaceutical Co., Ltd., priority 2023, dated 2025).

Experiments:
Format in all cases: cell-based
Details in all cases: ratio of EC50 value of other species to human EC50 value
rabbit GIPR = biological target: T1, rabbit GIPR (Oryctolagus cuniculus, UniProt G1T265); test: Agonistic activity on GIPR of different species (LANCE Ultra cAMP assay): rabbit
T1 construct: expressed in transfected cells; host or cells: CHO-K1 (transient)
T1 sequence (G1T265 23-468): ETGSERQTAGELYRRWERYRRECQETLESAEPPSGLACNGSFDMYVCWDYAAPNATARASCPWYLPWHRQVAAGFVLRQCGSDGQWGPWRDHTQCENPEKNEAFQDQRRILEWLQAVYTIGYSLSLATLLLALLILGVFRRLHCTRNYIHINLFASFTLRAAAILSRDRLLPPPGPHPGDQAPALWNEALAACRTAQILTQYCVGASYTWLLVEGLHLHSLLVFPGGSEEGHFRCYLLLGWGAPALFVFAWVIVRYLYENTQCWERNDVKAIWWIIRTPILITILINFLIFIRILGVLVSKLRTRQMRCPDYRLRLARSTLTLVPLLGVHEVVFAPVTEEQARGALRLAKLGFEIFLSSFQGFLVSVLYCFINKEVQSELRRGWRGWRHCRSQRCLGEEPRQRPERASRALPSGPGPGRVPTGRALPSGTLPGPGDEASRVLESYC
Procedure: (§1) CHO-K1 cells were seeded in a 6-well plate at 0.6×10^6 cells/well and incubated overnight in an incubator at a temperature of 37 °C and a carbon dioxide concentration of 5%. The next day, CHO-K1 cell media were replaced. Then two tubes A and B were prepared for each plasmid. 100 µL Opti-MEM was added to tube A, then 4 µL Lipofectamine™ 3000 was added and mixed uniformly. 100 µL Opti-MEM was firstly added to tube B, then 2 µg of one of the plasmids (human GIPR-pcDNA5 (+) plasmid, dog GIPR-pcDNA5 (+) plasmid, mouse GIPR-pcDNA5 (+) plasmid, rat GIPR-pcDNA5 (+) plasmid, rabbit GIPR-pcDNA5 (+) plasmid, monkey GIPR-pcDNA5 (+) plasmid) was added and mixed uniformly, and 4 µL P3000™ was added to tube B and mixed uniformly (the ratio of plasmid to transfection reagent was 1 µg: 2 µL). […]
18-20 hours after transfection, human GIPR-CHO, dog GIPR-CHO, mouse GIPR-CHO, rat GIPR-CHO, rabbit GIPR-CHO, and monkey GIPR-CHO cells were resuspended in 1×Casein Stimulation Buffer (HBSS, 5 mM HEPES, 0.5 mM IBMX, 0.1% casein, pH7.4), and seeded into a 384-well cell culture plate at 9 µL/well (cell numbers being 1000, 2000, 2000, 2000, 2000, 2000 cells/well, respectively). […] The readings at 665 nm and 620 nm were determined with a 330 nm excitation light on a microplate reader. The 665 nm/620 nm reading ratio was calculated. […]

cat GLP-1R = test: Agonistic activity on GLP-1R of different species (LANCE Ultra cAMP assay): cat
Procedure: as §1, with “(human GLP-1R-pcDNA5 (+) plasmid, cat GLP-1R-pcDNA5 (+) plasmid, human” for “(human”, “cat” for “dog GIPR-pcDNA5 (+) plasmid, mouse GIPR-pcDNA5 (+) plasmid, rat GIPR-pcDNA5 (+) plasmid, rabbit GIPR-pcDNA5 (+) plasmid, monkey”, “µL). The diluted solution in tube A was added to the diluted solution in tube B, mixed evenly, and incubated at room temperature for 15 minutes.” for “µL).”
(§2) 18-20 hours after transfection, human GLP-1R-CHO, cat GLP-1R-CHO, human GIPR-CHO, cat GIPR-CHO cells were resuspended in 1×Casein Stimulation Buffer (HBSS, 5 mM HEPES, 0.5 mM IBMX, 0.1% casein, pH7.4), and seeded into a 384-well cell culture plate at 9 µL/well (cell numbers being 2000, 2000, 1000, 2000 cells/well, respectively). […] The readings at 665 nm and 620 nm were determined with a 330 nm excitation light on a microplate reader. The 665 nm/620 nm reading ratio was calculated. […]

cat GIPR = test: Agonistic activity on GIPR of different species (LANCE Ultra cAMP assay): cat
Procedure: as §1, with “(human GLP-1R-pcDNA5 (+) plasmid, cat GLP-1R-pcDNA5 (+) plasmid, human” for “(human”, “cat” for “dog GIPR-pcDNA5 (+) plasmid, mouse GIPR-pcDNA5 (+) plasmid, rat GIPR-pcDNA5 (+) plasmid, rabbit GIPR-pcDNA5 (+) plasmid, monkey”, “µL). The diluted solution in tube A was added to the diluted solution in tube B, mixed evenly, and incubated at room temperature for 15 minutes.” for “µL).”
as §2

CC[C@H](C)[C@H](NC(=O)C(C)(C)NC(=O)[C@H](Cc1ccc(O)cc1)NC(=O)[C@H](CC(=O)O)NC(=O)[C@H](CO)NC(=O)[C@@H](NC(=O)C(C)(Cc1ccccc1)NC(=O)[C@@H](NC(=O)CNC(=O)[C@H](CCC(=O)O)NC(=O)C(C)(C)NC(=O)[C@@H](N)Cc1ccc(O)cc1)[C@@H](C)O)[C@@H](C)O)C(=O)NC(C)(C)C(=O)N[C@@H](CC(C)C)C(=O)N[C@@H](CC(=O)O)C(=O)N[C@@H](CCCCN)C(=O)N[C@@H](CCC(N)=O)C(=O)N[C@@H](C)C(=O)N[C@@H](CCC(N)=O)C(=O)N[C@@H](C)C(=O)N[C@@H](CCC(=O)O)C(=O)N[C@@H](Cc1ccccc1)C(=O)N[C@H](C(=O)N[C@@H](CCCCNC(=O)COCCOCCNC(=O)COCCOCCNC(=O)COCCOCCNC(=O)CC[C@H](NC(=O)CCCCCCCCCCCCCCCCCCCCC(=O)O)C(=O)O)C(=O)N[C@@H](Cc1c[nH]c2ccccc12)C(=O)N[C@@H](CC(C)C)C(=O)N[C@@H](CC(C)C)C(=O)N[C@@H](CCCCN)C(=O)NCC(=O)NCC(=O)N1CCC[C@H]1C(=O)N[C@@H](CO)C(=O)N[C@@H](CO)C(=O)NCC(=O)N[C@@H](C)C(=O)N1CCC[C@H]1C(=O)N1CCC[C@H]1C(=O)N1CCC[C@H]1C(=O)N[C@@H](CO)C(=O)N[C@@H](CCCCN)C(N)=O)C(C)C (stereo partly drawn) [Compound P016]
GIPR EC50 ratio (rabbit GIPR): 5.34 | GLP-1R EC50 ratio (cat GLP-1R): 2.98 | GIPR EC50 ratio (cat GIPR): 3.59
